Measured values from the NIST ThermoML archive (doi:10.1016/j.jct.2009.11.014).
± gives the expanded uncertainty stated by the source.

Conditions: Liquid; for mass density: vibrating tube; for viscosity: Stony Brook Scientific falling needle HPHTV-100 viscometer

CCCCn1cc[n+](C)c1.F[B-](F)(F)F [1-butyl-3-methylimidazolium tetrafluoroborate]
Conditions	mass density [kg/m3]	viscosity [mPa·s]
283.15 K, 100 kPa	1212.53 ± 1	–
283.15 K, 2000 kPa	1213.37 ± 0.99	–
283.15 K, 4000 kPa	1214.24 ± 0.99	–
283.15 K, 6000 kPa	1215.13 ± 0.99	–
283.15 K, 8000 kPa	1216 ± 0.99	–
283.15 K, 10000 kPa	1216.89 ± 0.99	–
283.15 K, 12000 kPa	1217.77 ± 0.99	–
283.15 K, 14000 kPa	1218.63 ± 0.99	–
283.15 K, 20000 kPa	1221.2 ± 0.98	–
283.15 K, 30000 kPa	1225.42 ± 0.98	–
283.15 K, 40000 kPa	1229.49 ± 0.99	–
283.15 K, 50000 kPa	1233.46 ± 0.99	–
283.15 K, 60000 kPa	1237.32 ± 1	–
285.05 K, 110 kPa	–	197.8 ± 21
285.05 K, 14190 kPa	–	236.6 ± 26
285.15 K, 110 kPa	–	197.5 ± 21
285.15 K, 660 kPa	–	197.8 ± 22
285.15 K, 1660 kPa	–	200.2 ± 22
285.15 K, 2660 kPa	–	202.7 ± 22
285.15 K, 4070 kPa	–	206.4 ± 22
285.15 K, 6100 kPa	–	211 ± 23
285.15 K, 8180 kPa	–	215.4 ± 24
285.15 K, 10150 kPa	–	220.7 ± 24
285.15 K, 12050 kPa	–	226.1 ± 25
288.15 K, 100 kPa	1208.87 ± 0.99	–
288.15 K, 2000 kPa	1209.73 ± 0.99	–
288.15 K, 4000 kPa	1210.65 ± 0.99	–
288.15 K, 6000 kPa	1211.56 ± 0.99	–
288.15 K, 8000 kPa	1212.45 ± 0.99	–
288.15 K, 10000 kPa	1213.34 ± 0.99	–
288.15 K, 12000 kPa	1214.22 ± 0.99	–
288.15 K, 14000 kPa	1215.09 ± 0.99	–
288.15 K, 20000 kPa	1217.71 ± 0.99	–
288.15 K, 30000 kPa	1221.96 ± 0.99	–
288.15 K, 40000 kPa	1226.06 ± 0.99	–
288.15 K, 50000 kPa	1230.05 ± 1	–
288.15 K, 60000 kPa	1233.94 ± 1	–
293.15 K, 100 kPa	1205.25 ± 0.99	–
293.15 K, 2000 kPa	1206.11 ± 0.99	–
293.15 K, 4000 kPa	1207.04 ± 0.99	–
293.15 K, 6000 kPa	1207.96 ± 0.99	–
293.15 K, 8000 kPa	1208.85 ± 0.99	–
293.15 K, 10000 kPa	1209.74 ± 0.99	–
293.15 K, 12000 kPa	1210.69 ± 0.99	–
293.15 K, 14000 kPa	1211.59 ± 0.99	–
293.15 K, 20000 kPa	1214.19 ± 0.99	–
293.15 K, 30000 kPa	1218.46 ± 0.99	–
293.15 K, 40000 kPa	1222.59 ± 0.99	–
293.15 K, 50000 kPa	1226.61 ± 0.99	–
293.15 K, 60000 kPa	1230.53 ± 1	–
293.85 K, 120 kPa	–	125.5 ± 14
293.85 K, 710 kPa	–	126.4 ± 14
293.85 K, 1690 kPa	–	127.1 ± 14
293.85 K, 2640 kPa	–	128.5 ± 14
293.85 K, 4150 kPa	–	130.9 ± 15
293.85 K, 6130 kPa	–	132.7 ± 15
293.85 K, 8200 kPa	–	134.9 ± 15
293.85 K, 10200 kPa	–	137.4 ± 16
293.85 K, 12000 kPa	–	142.1 ± 16
293.85 K, 12230 kPa	–	143.2 ± 16
293.85 K, 14330 kPa	–	146.1 ± 17
293.85 K, 14700 kPa	–	146 ± 17
298.15 K, 100 kPa	1201.64 ± 0.98	–
298.15 K, 2000 kPa	1202.53 ± 0.98	–
298.15 K, 4000 kPa	1203.45 ± 0.98	–
298.15 K, 6000 kPa	1204.39 ± 0.98	–
298.15 K, 8000 kPa	1205.3 ± 0.98	–
298.15 K, 10000 kPa	1206.22 ± 0.98	–
298.15 K, 12000 kPa	1207.12 ± 0.99	–
298.15 K, 14000 kPa	1208 ± 0.99	–
298.15 K, 20000 kPa	1210.64 ± 0.99	–
298.15 K, 30000 kPa	1214.97 ± 0.99	–
298.15 K, 40000 kPa	1219.15 ± 0.99	–
298.15 K, 50000 kPa	1223.24 ± 0.99	–
298.15 K, 60000 kPa	1227.21 ± 0.99	–
303.15 K, 100 kPa	1198.09 ± 0.98	–
303.15 K, 120 kPa	–	78.1 ± 8.7
303.15 K, 770 kPa	–	80 ± 8.8
303.15 K, 1680 kPa	–	82.4 ± 9.1
303.15 K, 2000 kPa	1198.98 ± 0.98	–
303.15 K, 2700 kPa	–	83.3 ± 9.2
303.15 K, 4000 kPa	1199.92 ± 0.98	–
303.15 K, 4170 kPa	–	84.4 ± 9.3
303.15 K, 6000 kPa	1200.85 ± 0.98	–
303.15 K, 6240 kPa	–	85.1 ± 9.4
303.15 K, 6290 kPa	–	85 ± 9.4
303.15 K, 8000 kPa	1201.78 ± 0.98	–
303.15 K, 8180 kPa	–	88.3 ± 9.7
303.15 K, 10000 kPa	1202.7 ± 0.98	–
303.15 K, 10200 kPa	–	89.8 ± 9.9
303.15 K, 12000 kPa	1203.62 ± 0.98	–
303.15 K, 12110 kPa	–	91 ± 9.6
303.15 K, 14000 kPa	1204.52 ± 0.98	–
303.15 K, 14200 kPa	–	92.5 ± 10
303.15 K, 14290 kPa	–	91.7 ± 10
303.15 K, 20000 kPa	1207.18 ± 0.98	–
303.15 K, 30000 kPa	1211.54 ± 0.98	–
303.15 K, 40000 kPa	1215.79 ± 0.98	–
303.15 K, 50000 kPa	1219.9 ± 0.99	–
303.15 K, 60000 kPa	1223.89 ± 0.99	–
308.15 K, 100 kPa	1194.52 ± 0.98	–
308.15 K, 2000 kPa	1195.44 ± 0.98	–
308.15 K, 4000 kPa	1196.38 ± 0.98	–
308.15 K, 6000 kPa	1197.34 ± 0.97	–
308.15 K, 8000 kPa	1198.26 ± 0.98	–
308.15 K, 10000 kPa	1199.2 ± 0.97	–
308.15 K, 12000 kPa	1200.1 ± 0.98	–
308.15 K, 14000 kPa	1201.03 ± 1	–
308.15 K, 20000 kPa	1203.74 ± 0.97	–
308.15 K, 30000 kPa	1208.15 ± 0.97	–
308.15 K, 40000 kPa	1212.4 ± 0.98	–
308.15 K, 50000 kPa	1216.54 ± 0.98	–
308.15 K, 60000 kPa	1220.57 ± 0.98	–
313.15 K, 100 kPa	1191.01 ± 0.97	–
313.15 K, 2000 kPa	1191.92 ± 0.97	–
313.15 K, 4000 kPa	1192.9 ± 0.97	–
313.15 K, 6000 kPa	1193.86 ± 0.97	–
313.15 K, 8000 kPa	1194.8 ± 0.97	–
313.15 K, 10000 kPa	1195.75 ± 0.97	–
313.15 K, 12000 kPa	1196.67 ± 0.97	–
313.15 K, 14000 kPa	1197.1 ± 1	–
313.15 K, 20000 kPa	1200.34 ± 0.97	–
313.15 K, 30000 kPa	1204.81 ± 0.97	–
313.15 K, 40000 kPa	1209.11 ± 0.97	–
313.15 K, 50000 kPa	1213.28 ± 0.97	–
313.15 K, 60000 kPa	1217.34 ± 0.97	–
313.45 K, 14310 kPa	–	59.4 ± 6.4
313.55 K, 120 kPa	–	51.2 ± 5.5
313.55 K, 710 kPa	–	51.7 ± 5.6
313.55 K, 1650 kPa	–	52.3 ± 5.7
313.55 K, 2690 kPa	–	52.5 ± 5.7
313.55 K, 4250 kPa	–	53.4 ± 5.8
313.55 K, 6260 kPa	–	54.3 ± 5.9
313.55 K, 8200 kPa	–	54.9 ± 6
313.55 K, 10200 kPa	–	56.2 ± 6.1
318.15 K, 100 kPa	1187.48 ± 0.97	–
318.15 K, 2000 kPa	1188.43 ± 0.97	–
318.15 K, 4000 kPa	1189.42 ± 0.97	–
318.15 K, 6000 kPa	1190.39 ± 0.97	–
318.15 K, 8000 kPa	1191.39 ± 0.97	–
318.15 K, 10000 kPa	1192.31 ± 0.97	–
318.15 K, 12000 kPa	1193.27 ± 0.97	–
318.15 K, 14000 kPa	1194.22 ± 0.93	–
318.15 K, 20000 kPa	1196.98 ± 0.97	–
318.15 K, 30000 kPa	1201.46 ± 0.97	–
318.15 K, 40000 kPa	1205.83 ± 0.97	–
318.15 K, 50000 kPa	1210.05 ± 0.97	–
318.15 K, 60000 kPa	1214.15 ± 0.97	–
323.15 K, 100 kPa	1184 ± 0.97	–
323.15 K, 2000 kPa	1184.97 ± 0.97	–
323.15 K, 4000 kPa	1185.97 ± 0.97	–
323.15 K, 6000 kPa	1186.94 ± 0.97	–
323.15 K, 8000 kPa	1187.91 ± 0.97	–
323.15 K, 10000 kPa	1188.88 ± 0.97	–
323.15 K, 12000 kPa	1189.84 ± 0.97	–
323.15 K, 14000 kPa	1190.78 ± 0.97	–
323.15 K, 20000 kPa	1193.6 ± 0.97	–
323.15 K, 30000 kPa	1198.15 ± 0.97	–
323.15 K, 40000 kPa	1202.55 ± 0.97	–
323.15 K, 50000 kPa	1206.8 ± 0.98	–
323.15 K, 60000 kPa	1210.94 ± 0.97	–
324.8 K, 630 kPa	–	34.5 ± 3.8
324.82 K, 120 kPa	–	34.3 ± 3.7
324.85 K, 1700 kPa	–	34.8 ± 3.8
324.85 K, 2590 kPa	–	35.2 ± 3.8
324.85 K, 4050 kPa	–	35.3 ± 3.9
324.85 K, 4260 kPa	–	35.8 ± 3.9
324.85 K, 6160 kPa	–	36.5 ± 4
324.85 K, 8160 kPa	–	36.7 ± 4
324.85 K, 10450 kPa	–	37.5 ± 4.1
324.85 K, 12130 kPa	–	38.4 ± 4.2
324.85 K, 14150 kPa	–	39 ± 4.3
